Laboratory results published in PubChem BioAssay AID264 (DTP/NCI, 2004).
Values joined by “and” are separate entries in the source; they are usually repeats but may differ in a detail not shown here. Equal entries are not always repeated. Records with an inconclusive call do not appear.

Tested on: nude mice, LX-1 lung xenograft intrarenal, tumor weight T/C
Test: NCI In Vivo Anticancer Drug Screen. Data for tumor model Human Lung LX-1 Xenograft (intrarenal inoculation) in NU/NU Swiss (nude) mice
Details: endpoint: mean tumor weight change, higher = larger tumour
Method in brief: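 Readout: T/C, i.e. treated-group tumor measurement over vehicle-control measurement. Mice bearing transplantable tumors were dosed with compound or vehicle.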

[1] = dose: 150.0 mg/kg/injection, schedule: Q04DX003 (sc), vehicle: Klucel (hydroxypropylcellulose) (HPC)
[2] = dose: 600.0 mg/kg/injection, schedule: Q04DX003 (sc), vehicle: Klucel (hydroxypropylcellulose) (HPC)
[3] = dose: 1200.0 mg/kg/injection, schedule: Q04DX003 (sc), vehicle: Klucel (hydroxypropylcellulose) (HPC)

## CC1OC(=O)C(C(C)C)NC(=O)C(C(C)C)OC(=O)C(C(C)C)NC(=O)C(C)OC(=O)C(C(C)C)NC(=O)C(C(C)C)OC(=O)C(C(C)C)NC(=O)C(C)OC(=O)C(C(C)C)NC(=O)C(C(C)C)OC(=O)C(C(C)C)NC1=O (stereo not given)
dose: 5.0 mg/kg/injection, schedule: Q01DX010 (ip), vehicle: saline with Tween-80
  T/C: 44 % of control
dose: 5.0 mg/kg/injection, schedule: Q01DX010 (sc), vehicle: saline with Tween-80
  T/C: 107 % of control
dose: 10.0 mg/kg/injection, schedule: Q01DX010 (ip), vehicle: saline with Tween-80
  T/C: 28 % of control
dose: 16.66 mg/kg/injection, schedule: Q04DX003 (ip), vehicle: saline with Tween-80
  T/C: 56 % of control
dose: 16.66 mg/kg/injection, schedule: Q04DX003 (sc), vehicle: saline with Tween-80
  T/C: 179 % of control
dose: 33.33 mg/kg/injection, schedule: Q04DX003 (sc), vehicle: saline with Tween-80
  T/C: 94 % of control
dose: 66.65 mg/kg/injection, schedule: Q04DX003 (ip), vehicle: saline with Tween-80
  T/C: 37 % of control
dose: 66.65 mg/kg/injection, schedule: Q04DX003 (sc), vehicle: saline with Tween-80
  T/C: 119 % of control

## Cc1nn(CCO)c(C)c1N=[N+]([O-])c1c(C)nn(CCO)c1C
[1]
  T/C: 99 % of control
dose: 300.0 mg/kg/injection, schedule: Q04DX003 (sc), vehicle: Klucel (hydroxypropylcellulose) (HPC)
  T/C: 105 % of control
[2]
  T/C: 121 % of control
[3]
  T/C: 103 % of control

## Cc1cc(O)c(N=Nc2ccc(C(=O)O)cc2)cc1C
dose: 100.0 mg/kg/injection, schedule: Q01DX010 (sc), vehicle: saline with Tween-80
  T/C: 77 % of control
dose: 200.0 mg/kg/injection, schedule: Q01DX010 (sc), vehicle: saline with Tween-80
  T/C: 67 % of control
dose: 400.0 mg/kg/injection, schedule: Q01DX010 (sc), vehicle: saline with Tween-80
  T/C: 62 % of control
dose: 800.0 mg/kg/injection, schedule: Q01DX010 (sc), vehicle: saline with Tween-80
  T/C: 59 % of control

## CNc1nc2c(N)ncnc2n1C1OC(CO)C(O)C1O (stereo not given)
dose: 25.0 mg/kg/injection, schedule: Q04DX003 (sc), vehicle: saline
  T/C: 103 % of control
dose: 50.0 mg/kg/injection, schedule: Q04DX003 (sc), vehicle: saline
  T/C: 82 % of control
dose: 100.0 mg/kg/injection, schedule: Q04DX003 (sc), vehicle: saline
  T/C: 57 % of control

## O=NN(CCCl)C(=O)NCCO
dose: 3.12 mg/kg/injection, schedule: Q04DX003 (sc), vehicle: water
  T/C: 49 % of control and 65 % of control

## CCn1cnc2c(=S)nc[nH]c21
dose: 150.0 mg/kg/injection, schedule: Q04DX003 (sc), vehicle: saline
  T/C: 159 % of control
dose: 600.0 mg/kg/injection, schedule: Q04DX003 (sc), vehicle: saline
  T/C: 224 % of control

## CC(C)(C)c1ccc(CN2CCN(C(c3ccccc3)c3ccc(Cl)cc3)CC2)cc1 (stereo not given)
dose: 37.5 mg/kg/injection, schedule: Q04DX003 (sc), vehicle: Klucel (hydroxypropylcellulose) (HPC)
  T/C: 79 % of control
dose: 75.0 mg/kg/injection, schedule: Q04DX003 (sc), vehicle: Klucel (hydroxypropylcellulose) (HPC)
  T/C: 63 % of control
[1]
  T/C: 71 % of control
[2]
  T/C: 63 % of control
[3]
  T/C: 78 % of control
dose: 2400.0 mg/kg/injection, schedule: Q04DX003 (sc), vehicle: Klucel (hydroxypropylcellulose) (HPC)
  T/C: 62 % of control

## CNc1nc(N(C)C)nc(N(C)C)n1
dose: 12.5 mg/kg/injection, schedule: Q04DX003 (sc), vehicle: water
  T/C: 177 % of control
dose: 15.0 mg/kg/injection, schedule: Q01DX010 (ip), vehicle: water
  T/C: 55 % of control
dose: 15.0 mg/kg/injection, schedule: Q01DX010 (sc), vehicle: water
  T/C: 121 % of control
dose: 30.0 mg/kg/injection, schedule: Q01DX010 (ip), vehicle: water
  T/C: 287 % of control
dose: 30.0 mg/kg/injection, schedule: Q01DX010 (sc), vehicle: water
  T/C: 56 % of control
dose: 50.0 mg/kg/injection, schedule: Q04DX003 (ip), vehicle: water
  T/C: 67 % of control
dose: 60.0 mg/kg/injection, schedule: Q01DX010 (ip), vehicle: water
  T/C: 71 % of control
dose: 60.0 mg/kg/injection, schedule: Q01DX010 (sc), vehicle: water
  T/C: 69 % of control
dose: 100.0 mg/kg/injection, schedule: Q04DX003 (ip), vehicle: water
  T/C: 59 % of control
dose: 100.0 mg/kg/injection, schedule: Q04DX003 (sc), vehicle: water
  T/C: 114 % of control and 218 % of control
dose: 120.0 mg/kg/injection, schedule: Q01DX010 (sc), vehicle: water
  T/C: 64 % of control
dose: 200.0 mg/kg/injection, schedule: Q04DX003 (ip), vehicle: water
  T/C: 54 % of control
